This is an account of results in patent US20220054465A1, “(PYRIDIN-2-YL)AMINE DERIVATIVES AS TGF-BETA R1 (ALK5) INHIBITORS FOR THE TREATMENT OF CANCER” (Nexys Therapeutics, Inc., priority 2018, published 2022).

The experiment deals with HEK-Blue TGFβ cell. Put plainly: HEK-Blue TGFβ cellular reporter gene assay (SEAP readout). It counts as cell-based. The note with it: HEK-Blue TGFβ cells stimulated with TGF-β, 22-23 h incubation, SEAP read at 630 nm. In short, it runs like this:
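Cells (2.5×10^5 cells/ml suspension) in DMEM with 0.5% heat-inactivated FBS stimulated with TGF-β (6 ng/ml working solution) plus compound at eight 3-fold dilutions for 22-23 h at 37° C. Supernatant SEAP measured with QUANTI-Blue after 30-40 min, absorbance 630 nm; percent inhibition calculated.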

Take `Cc1ccc(Oc2ccnc(Nc3cccc(C(C)(C)C(=O)O)c3)c2)c(-c2ccccc2C)n1` [Example 92]: the 50% inhibitory concentration (IC50) turned out to be 80 nM.
With `Cc1ccc(Oc2ccnc(Nc3cccc(C(C)(C)c4nnn[nH]4)c3)c2)c(-c2ccccc2)n1` [Example 60], it took 79 nM to reach half-maximal inhibition (IC50).
In turn, `COc1cccc(-c2nc(C)ccc2Oc2ccnc(Nc3cccc(C(C)(C)C(=O)O)c3)c2)c1` [Example 87] returned a half-maximal inhibitory concentration (IC50) of 94 nM.
For the compound `Cc1ccc(Oc2ccnc(Nc3cccc(CCc4nn[nH]n4)c3)c2)c(C2CCOCC2)n1` [Example 191], half-maximal inhibition (IC50) was put at 3690 nM.
For the compound `CCc1nc(-c2ccccn2)c(Oc2ccnc(Nc3cccc(C(C)(C)C(=O)O)c3)c2)cc1C` [Example 85], the midpoint of inhibition, the IC50, lay at 44 nM.
`Cc1cc(Oc2ccnc(Nc3cccc(CCc4nn[nH]n4)c3)c2)c(C)nc1C` [Example 188] yielded a half-inhibitory concentration (IC50) of 73 nM. This IC50 is about 1.7-fold higher than that of the compound before.
For `Cc1cc(Oc2ccnc(Nc3cccc(C(C)(C)c4nnn[nH]4)c3)c2)c(-c2ccccn2)nc1C` [Example 18], it took 180 nM to reach half-maximal inhibition (IC50). Against the preceding compound, the IC50 is about 2.5-fold higher.
The same measure for `Cc1cc(CCc2nnn[nH]2)cc(Nc2cc(Oc3cc(C)c(C)nc3-c3ccccn3)ccn2)c1` [Example 29]: 38 nM; for `Cc1cc(Oc2ccnc(Nc3cccc(CC(C)(C)C(=O)O)c3)c2)c(-c2ccccn2)nc1C` [Example 137]: 71 nM; for `Cc1ccc(Oc2ccnc(Nc3cccc(C(C)(C)CC(=O)O)c3)c2)c(-c2ccccc2)n1` [Example 110]: 30 nM.
`Cc1cc(Oc2ccnc(Nc3ccc(Cc4nnn(CC(=O)O)n4)cc3)c2)c(-c2ccccn2)nc1C` [Example 35A] had a half-maximal inhibitory concentration (IC50) greater than 10000 nM.
The compound `CCc1ccc(Oc2ccnc(Nc3cccc(C(C)(C)C(=O)O)c3)c2)c(-c2ccccn2)n1` [Example 84] yielded an IC50 of 55 nM.
With `Cc1ccc(Nc2cc(Oc3cn(C4CC4)nc3C3CCOCC3)ccn2)cc1CC(=O)O` [Example 115], the concentration for half-maximal inhibition (IC50) came out at 1100 nM.
`Cc1cc(CC(C)(C)C(=O)O)cc(Nc2cc(Oc3cn(C4CC4)nc3-c3ccccc3)ccn2)c1` [Example 170] yielded an IC50 of 14 nM.
The same measure for `Cc1ccc(Oc2ccnc(Nc3cccc(C(C)(C)C(=O)O)c3)c2)c(C)n1` [Example 73]: 140 nM; for `Cc1cc(Nc2cc(Oc3cc(C)c(C)nc3C3CCOCC3)ccn2)cc(C(C)(C)C(=O)O)c1` [Example 143]: 130 nM.
Turning to `Cc1cc(Oc2ccnc(Nc3ccc(Cc4nnn[nH]4)cc3)c2)c(-c2ccccn2)nc1C` [Example 15], half-maximal inhibition (IC50) was put at 1840 nM. This IC50 lies about 14-fold higher than the previous one.
In the case of `Cc1cc(Oc2ccnc(Nc3ccc(Cl)c(CCC(=O)O)c3)c2)c(-c2ccccn2)nc1C` [Example 5], the IC50 came to 150 nM.
With `Cc1cc(Oc2ccnc(Nc3ccc(-c4nnn[nH]4)cc3)c2)c(-c2ccccn2)nc1C` [Example 14] the figure was greater than 10000 nM; with `Cc1cc(Oc2ccnc(Nc3cccc(CC(C)(C)c4nn[nH]n4)c3)c2)c(-c2ccccn2)nc1C` [Example 176], 150 nM; with `Cc1ccc(Oc2ccnc(Nc3cccc(CCC(=O)O)n3)c2)c(C)n1` [Example 37], 200 nM.
With `Cn1cc(Oc2ccnc(Nc3cccc(C(C)(C)C(=O)O)c3)c2)c(-c2ccccc2)n1` [Example 120] the figure was 50 nM; with `Cc1cc(Oc2ccnc(Nc3cc(F)cc(CCc4nn[nH]n4)c3)c2)c(-c2ccccn2)nc1C` [Example 179], 170 nM; with `Cc1ccc(Oc2ccnc(Nc3cccc(C(C)(C)C(=O)O)c3)c2)c(-c2ccc(F)cc2)n1` [Example 91], 18 nM.
As for `Cc1nc(-c2ccccc2)c(Oc2ccnc(Nc3cccc(C(C)(C)C(=O)O)c3)c2)cc1Cl` [Example 99], the IC50 was found to be 23 nM.
On to `Cc1ccc(Oc2ccnc(Nc3cccc(CCC(=O)O)c3)c2)c(-c2ccccc2)n1` [Example 66, 3-(3-((4-((6-methyl-2-phenylpyridin-3-yl)oxy)pyridin-2-yl)amino)phenyl)propanoic acid], for which half-maximal inhibition (IC50) required 24 nM.
The same measure for `CC(C)(C(=O)O)c1cccc(Nc2cc(Oc3cn(C4CC4)nc3C3CCCCC3)ccn2)c1` [Example 127]: 12 nM; for `Cc1cc(Oc2ccnc(Nc3ccc(F)c(CCC(=O)O)c3)c2)c(-c2ccccn2)nc1C` [Example 4]: 200 nM.
For the compound `CCc1ccc(Oc2ccnc(Nc3cccc(CC(C)(C)C(=O)O)c3)c2)c(C)n1` [Example 133, 3-(3-((4-((6-ethyl-2-methylpyridin-3-yl)oxy)pyridin-2-yl)amino)phenyl)-2,2-dimethylpropanoic acid], half-maximal inhibition (IC50) required 28 nM.
`Cc1ccc(Oc2ccnc(Nc3ccc(F)c(CCC(=O)O)c3)c2)c(C)n1` [Example 36, 3-(5-((4-((2,6-dimethylpyridin-3-yl)oxy)pyridin-2-yl)amino)-2-fluorophenyl)propanoic acid] came in with an IC50 of 180 nM.
On to `Cc1ccc(Oc2ccnc(Nc3cccc(CCc4nn[nH]n4)c3)c2)c(-c2ncccc2C)n1` [Example 64], for which the IC50 was 2600 nM.
With `Cc1ccc(Oc2ccnc(Nc3cccc(C(C)(C)C(=O)O)c3)c2)c(-c2ccccc2Cl)n1` [Example 80], the IC50 was determined as 110 nM.
`Cc1nc(-c2ccccc2)ccc1Oc1ccnc(Nc2cccc(C(C)(C)C(=O)O)c2)c1` [Example 75] had a 50% inhibitory concentration (IC50) of 8120 nM.
Take `CC(C)(C(=O)O)c1cccc(Nc2cc(Oc3cn(CC(F)F)nc3-c3ccccc3)ccn2)c1` [Example 123]: half-maximal inhibition (IC50) required 180 nM.
The same measure for `CCc1nc(C)ccc1Oc1ccnc(Nc2cccc(CCc3nn[nH]n3)c2)c1` [Example 56]: 160 nM.
With `CCc1nc(C)c(Oc2ccnc(Nc3cccc(CC(C)(C)C(=O)O)c3)c2)cc1Cl` [Example 155] the figure was 30 nM; with `CC(C)(C(=O)O)c1cccc(Nc2cc(Oc3cn(C4CC4)nc3-c3ccccc3)ccn2)c1` [Example 119], 13 nM.
Compound `COc1ccc(Nc2cc(Oc3ccc(C)nc3-c3ccccn3)ccn2)cc1CCc1nn[nH]n1` [Example 184] registered an IC50 of 330 nM. Against the preceding compound, the IC50 is about 25-fold higher.
In turn, `CC(C)(C(=O)O)c1cccc(Nc2cc(Oc3ccc(C4CC4)nc3-c3ccccc3)ccn2)c1` [Example 105] yielded an IC50 of 130 nM.
Turning to `Cc1ccc(Oc2ccnc(Nc3cccc(CCC(=O)O)c3)c2)c(C#N)n1` [Example 43], the midpoint of inhibition, the IC50, lay at 3810 nM.
As for `Cc1nc(-c2ccccc2)ccc1Oc1ccnc(Nc2cccc(C(C)(C)c3nn[nH]n3)c2)c1` [Example 61], it took 190 nM to reach half-maximal inhibition (IC50). This IC50 is about 20-fold lower than that of the compound before.
Consider `CCc1ccc(Oc2ccnc(Nc3cccc(CCC(=O)O)c3)c2)c(-c2ccccn2)n1` [Example 138], for which half-maximal inhibition (IC50) required 49 nM.
Compound `CCc1cc(Oc2ccnc(Nc3cccc(CCc4nn[nH]n4)c3)c2)c(-c2ccccn2)nc1C` [Example 181] had an IC50 of 210 nM.
With `Cc1cc(Oc2ccnc(Nc3ccnc(CCC(=O)O)c3)c2)c(-c2ccccn2)nc1C` [Example 9], the half-inhibitory concentration (IC50) is greater than 10000 nM.
Compound `Cc1ccc(Oc2ccnc(Nc3ccc(C(F)(F)F)c(CCc4nn[nH]n4)c3)c2)c(-c2ccccn2)n1` [Example 65] registered an IC50 of 520 nM. In other words, the sub-micromolar range.
The same measure for `Cc1cc(Cc2nn[nH]n2)cc(Nc2cc(Oc3cn(C4CC4)nc3C3CCOCC3)ccn2)c1` [Example 194]: 4140 nM; for `Cc1cc(Oc2ccnc(Nc3cccc(-c4nnn[nH]4)c3)c2)c(-c2ccccn2)nc1C` [Example 13]: 1080 nM.
In turn, `Cc1ccc(Oc2ccnc(Nc3cccc(C(C)(C)C(=O)O)c3)c2)c(-c2ccccc2C#N)n1` [Example 95] displayed a 50% inhibitory concentration (IC50) of 290 nM.
With `Cc1ccc(Oc2ccnc(Nc3cccc(CCc4nn[nH]n4)n3)c2)c(C)n1` [Example 47], half-maximal inhibition (IC50) was put at 310 nM.
